How the values were obtained:
[1] = total radioactivity in plasma of patients (LSC); assay type: in vivo, human
Source text: Part 1 of the study included a screening phase of up to 28 days prior to drug administration to assess eligibility. Patients were admitted to the clinical research unit (CRU) at Royal Liverpool University Hospital (Liverpool, UK)/Clatterbridge Cancer Centre NHS Foundation Trust (Bebington, Wirral, UK) on day −1 and received a single dose of 60‐mg/100 μCi [^14C]‐pamiparib orally the morning of day 1. Patients remained in the CRU until completion of assessments on day 7, when discharge criteria of ≈90% of the radioactive dose being recovered or <1% of the radioactive dose being recovered in urine and feces for 2 consecutive 24‐hour collection intervals were met. If discharge criteria were not met by day 7, patients collected 24‐hour excreta samples up to day 14 on an outpatient basis. Part 2 of the study, evaluating the safety/tolerability and antitumor activity of 60 mg twice‐daily pamiparib in patients with advanced and/or metastatic solid tumors, is ongoing and is not included in this report.
Patients fasted overnight and 2 hours after oral administration of a single 60‐mg dose containing ≈100 μCi (3.7‐3.9 MBq) of [^14C]‐pamiparib with ≈240 mL of room‐temperature water or juice (orange or grape). The residual radioactivity present in each vial postdose was corrected from the dose. The radioactive dose of 100 μCi of [^14C]‐pamiparib provided minimum risk to patients according to the dosimetry calculation from a quantitative whole‐body autoradiography study in male and female Long Evans rats; the dose also provided sufficient signal for total radioactivity counting and quantitative radioprofiling in blood, plasma, and excreta (data on file). […]
(§1) Total radioactivity was analyzed at Covance Laboratories (Harrogate, North Yorkshire, UK), and metabolite profiling was conducted at Covance Laboratories (Madison, Wisconsin). Determination of pamiparib concentrations in plasma and total radioactivity in plasma and whole blood was performed predose and 0.25, 0.5, 1, 1.5, 2, 2.5, 3, 6, 12, 24, 48, 72, 96, 120, and 144 hours postdose. Pamiparib concentrations in plasma and urine were determined at Covance Laboratories (Salt Lake City, Utah) with validated liquid chromatography‐tandem mass spectrometry (LC‐MS/MS) methods.
Total radioactivity concentrations of [^14C]‐pamiparib in whole blood, plasma, urine, and feces were determined by liquid scintillation counting (LSC). Radioactivity in each sample was measured for 5 minutes using a Packard Tri‐Carb liquid scintillation counter model 2100TR, 2900TR, or 3100TR (Canberra Packard, Pangbourne, Berks, Australia) with the facilities for computing quench‐corrected disintegrations per minute. […] Quantitation of the metabolites present in plasma, urine, and feces was based on the profiles of radioactivity. […]

[2] = unchanged pamiparib in urine and renal clearance (LC‐MS/MS); assay type: in vivo, human
Protocol: as §1
An aliquot of human plasma (25 μL) containing dipotassium ethylenediaminetetraacetic acid as anticoagulant or urine (25 μL) was added with the internal standard (20.0 μL of 400 ng/mL BGB‐326) in water:ACN (50:50 v/v) followed by the addition of water:ACN (50:50 v/v, 20.0 μL). […]
Standard PK parameters of pamiparib in plasma as well as total radioactivity in blood and plasma were calculated with noncompartmental methods with Phoenix WinNonlin (version 8.1). Area under the concentration‐time curve (AUC) from time 0 to infinity (AUC0‐∞), AUC from time 0 to last quantifiable concentration (AUC0‐t), Cmax, time postdose at Cmax (tmax), t1/2, and apparent total clearance (CL/F) were calculated. Renal clearance (CLR) was calculated as Ae/AUC, where Ae was the amount of drug excreted in urine.

PARP2 = tested on: PARP2; design: method as in PMID 33264017; conditions: read-out: PARP2 inhibition IC50; cited from earlier work
rat bone marrow = tested on: rat bone marrow; design: method as in data on file; conditions: in vivo rat bone marrow micronucleus assay; ref data on file; cited from earlier work

In the case of `C[C@]12CCCN1CC1=NNC(=O)c3cc(F)cc4[nH]c2c1c34` [Pamiparib], the “geometric mean AUC0‐t of pamiparib (LC‐MS/MS) as percent of total radioactivity in plasma” value [1] is reported as roughly 69.9%, the “geometric mean AUC0‐∞ of pamiparib (LC‐MS/MS) as percent of total radioactivity in plasma” value [1] is reported as roughly 69.4% and the “geometric mean Cmax of pamiparib (LC‐MS/MS) as percent of total radioactivity in plasma” value [1] is reported as “≈ 91.6%”. For the same compound, the “AUC0‐∞ ratio plasma pamiparib/total radioactivity, geometric mean (CV%)” value ([1]; n = 4) was 0.694 (2.7), the “cumulative percent of pamiparib excreted unchanged in urine, geometric mean” value ([2]; LC‐MS/MS, over the 192‐hour study) was “≈ 1.7 % of the administered dose” and the CL renal ([2]; human, urine and plasma, oral, 60 mg, calculated as Ae/AUC, read-out: renal clearance, geometric mean (converted)) was 0.623 mL/min. The IC50 (PARP2) was 0.9 nM and the clastogenic activity (rat bone marrow) was “clastogenic activity”.

Source: PMC8453745, “Human Mass Balance and Metabolite Profiling of [^14C]‐Pamiparib, a Poly (ADP‐Ribose) Polymerase Inhibitor, in Patients With Advanced Cancer” (Clinical Pharmacology in Drug Development, 2021)
